How the values were obtained:
[1] = target: Beta-2 adrenergic receptor (Homo sapiens, UniProt P07550); assay: DRUGMATRIX: Adrenergic beta2 radioligand binding (ligand: [3H] CGP-12177); assay type: cell membranes, CHO, Membrane; details: Not Active = under 50% inhibition at 10 µM
[2] = target: Beta-3 adrenergic receptor (Homo sapiens, UniProt P13945); assay: DRUGMATRIX: Adrenergic beta3 radioligand binding (ligand: [125I] Cyanopindolol); assay type: cell membranes, HEK293, Membrane; details: Not Active = under 50% inhibition at 10 µM
Sequence of Beta-3 adrenergic receptor (P13945 whole entry): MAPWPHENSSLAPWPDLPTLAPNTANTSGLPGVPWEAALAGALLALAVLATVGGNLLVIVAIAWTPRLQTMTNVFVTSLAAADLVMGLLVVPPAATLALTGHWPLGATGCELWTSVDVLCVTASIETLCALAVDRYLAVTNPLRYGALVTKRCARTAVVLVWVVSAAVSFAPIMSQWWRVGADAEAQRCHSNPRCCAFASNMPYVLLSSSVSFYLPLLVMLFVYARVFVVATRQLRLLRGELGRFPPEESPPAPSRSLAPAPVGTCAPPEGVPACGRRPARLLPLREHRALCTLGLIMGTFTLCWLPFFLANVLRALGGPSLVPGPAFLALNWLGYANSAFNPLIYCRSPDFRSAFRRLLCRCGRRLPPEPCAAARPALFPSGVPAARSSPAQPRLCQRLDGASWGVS

[3] = DRUGMATRIX: Interleukin IL-1 radioligand binding (ligand: [125I] interleukin 1beta); assay type: cell membranes, Membrane; details: nih3t3; Not Active = under 50% inhibition at 10 µM
[4] = DRUGMATRIX: Leukotriene, BLT (LTB4) radioligand binding (ligand: [3H]LTB4); assay type: cell membranes, Membrane; details: u-937; Not Active = under 50% inhibition at 10 µM
[5] = target: T1, Neuropeptide Y receptor type 1 (Homo sapiens, UniProt P25929); assay type: cell membranes, Membrane; details: sk-n-mc; further: in other assays of this panel Not Active means under 50% inhibition at 10 µM
T1 sequence (P25929 whole entry): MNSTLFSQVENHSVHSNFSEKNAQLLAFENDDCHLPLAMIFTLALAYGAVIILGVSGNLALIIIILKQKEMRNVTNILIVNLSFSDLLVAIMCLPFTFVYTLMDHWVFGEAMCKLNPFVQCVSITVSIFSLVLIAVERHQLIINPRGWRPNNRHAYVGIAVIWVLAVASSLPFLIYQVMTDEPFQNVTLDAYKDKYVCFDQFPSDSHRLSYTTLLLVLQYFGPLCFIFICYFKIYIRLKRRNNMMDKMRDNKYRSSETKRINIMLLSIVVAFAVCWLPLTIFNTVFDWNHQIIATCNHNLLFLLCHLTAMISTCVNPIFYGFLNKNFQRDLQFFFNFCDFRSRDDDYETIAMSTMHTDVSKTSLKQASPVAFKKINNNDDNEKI

Neutrophil elastase = target: T2, Neutrophil elastase (Homo sapiens, UniProt P08246); assay type: tissue-based;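 further: inhibition of neutrophil elastase enzyme activity, measured with a p-nitroanilide-linked peptide substrate; in other assays of this panel Not Active means under 50% inhibition at 10 µM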
T2 sequence (P08246 whole entry): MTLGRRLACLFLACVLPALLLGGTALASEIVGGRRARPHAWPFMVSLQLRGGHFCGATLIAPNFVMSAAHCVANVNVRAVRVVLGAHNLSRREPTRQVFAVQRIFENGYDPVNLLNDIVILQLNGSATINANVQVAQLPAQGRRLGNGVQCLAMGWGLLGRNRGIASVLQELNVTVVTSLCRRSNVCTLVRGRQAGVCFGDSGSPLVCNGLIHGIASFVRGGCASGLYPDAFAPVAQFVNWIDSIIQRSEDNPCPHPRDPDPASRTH

Cytochrome P450 2D6 = Cytochrome P450 2D6 (Homo sapiens, UniProt P10635); details: bti-tn-5b1-4; further: in other assays of this panel Not Active means under 50% inhibition at 10 µM
Sequence of Cytochrome P450 2D6 (P10635 whole entry): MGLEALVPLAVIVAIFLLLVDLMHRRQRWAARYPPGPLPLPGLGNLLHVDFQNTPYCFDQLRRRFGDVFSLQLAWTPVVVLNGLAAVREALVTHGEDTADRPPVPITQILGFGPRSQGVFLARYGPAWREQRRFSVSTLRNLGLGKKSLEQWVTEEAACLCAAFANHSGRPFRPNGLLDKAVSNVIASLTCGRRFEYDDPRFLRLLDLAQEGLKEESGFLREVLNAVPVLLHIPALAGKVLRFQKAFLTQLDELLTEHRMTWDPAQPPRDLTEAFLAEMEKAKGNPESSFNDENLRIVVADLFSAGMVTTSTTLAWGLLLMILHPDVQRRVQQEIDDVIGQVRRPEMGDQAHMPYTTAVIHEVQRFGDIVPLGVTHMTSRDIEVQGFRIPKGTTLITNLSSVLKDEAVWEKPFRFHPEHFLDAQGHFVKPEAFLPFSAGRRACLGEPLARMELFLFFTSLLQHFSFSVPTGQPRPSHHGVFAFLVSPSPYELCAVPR

Sequence of Beta-2 adrenergic receptor (P07550 whole entry): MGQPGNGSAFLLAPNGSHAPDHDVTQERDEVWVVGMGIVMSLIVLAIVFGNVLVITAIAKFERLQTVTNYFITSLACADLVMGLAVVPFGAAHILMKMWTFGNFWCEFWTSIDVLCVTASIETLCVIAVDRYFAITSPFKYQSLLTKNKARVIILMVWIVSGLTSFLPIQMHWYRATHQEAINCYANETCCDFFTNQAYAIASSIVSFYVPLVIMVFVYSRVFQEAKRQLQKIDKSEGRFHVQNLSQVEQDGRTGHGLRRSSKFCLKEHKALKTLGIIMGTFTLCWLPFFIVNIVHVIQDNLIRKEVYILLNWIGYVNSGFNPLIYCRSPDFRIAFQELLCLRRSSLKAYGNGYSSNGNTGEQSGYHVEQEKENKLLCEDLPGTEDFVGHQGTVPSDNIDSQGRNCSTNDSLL

Row | SMILES | IC50 ([1]; cho) | IC50 ([2]; hek293) | IC50 [3] | Ki [3] | IC50 [4] | Ki [4] | IC50 [5] | IC50 (Neutrophil elastase) | IC50 (Cytochrome P450 2D6) | Ki (Cytochrome P450 2D6) | IC50 ([1]; read-out: IC50) [µM] | Ki ([1]; read-out: Ki) [µM] | Ki [5] | IC50 ([2]; read-out: IC50) [µM] | Ki ([2]; read-out: Ki) [µM]
1 | COc1cc(OC)c(C(=O)CCCN2CCCC2)c(OC)c1 [BUFLOMEDIL] | Not Active | Not Active | Not Active | Not Active | Not Active | Not Active | Not Active | Not Active | Not Active | Not Active |  |  |  |  | 
2 | Cn1c(=O)c2c(ncn2C)n(C)c1=O [CAFFEINE] | Not Active | Not Active | Not Active | Not Active | Not Active | Not Active | Not Active | Not Active | Not Active | Not Active |  |  |  |  | 
3 | ClC(Cl)(Cl)Cl [CARBON TETRACHLORIDE] | Not Active | Not Active | Not Active | Not Active | Not Active | Not Active | Not Active | Not Active | Not Active | Not Active |  |  |  |  | 
4 | CO/N=C(\C(=O)N[C@@H]1C(=O)N2C(C(=O)O)=C(COC(C)=O)CS[C@H]12)c1csc(N)n1 [CEFOTAXIME] | Not Active | Not Active | Not Active | Not Active | Not Active | Not Active | Not Active | Not Active | Not Active | Not Active |  |  |  |  | 
5 | CNC1=Nc2ccc(Cl)cc2C(c2ccccc2)=[N+]([O-])C1 [CHLORDIAZEPOXIDE] | Not Active | Not Active | Not Active | Not Active | Not Active | Not Active | Not Active | Not Active | Not Active | Not Active |  |  |  |  | 
6 | Cc1cc(O)cc(C)c1Cl [CHLOROXYLENOL] | Not Active | Not Active | Not Active | Not Active | Not Active | Not Active | Not Active | Not Active | Not Active | Not Active |  |  |  |  | 
7 | CCCNC(=O)NS(=O)(=O)c1ccc(Cl)cc1 [CHLORPROPAMIDE] | Not Active | Not Active | Not Active | Not Active | Not Active | Not Active | Not Active | Not Active | Not Active | Not Active |  |  |  |  | 
8 | NS(=O)(=O)c1cc(C2(O)NC(=O)c3ccccc32)ccc1Cl (configuration not stated) [CHLORTHALIDONE] | Not Active | Not Active | Not Active | Not Active | Not Active | Not Active | Not Active | Not Active | Not Active | Not Active |  |  |  |  | 
9 | O=C(O)CC(O)(CC(=O)O)C(=O)O [CITRIC ACID] | Not Active | Not Active | Not Active | Not Active | Not Active | Not Active | Not Active | Not Active | Not Active | Not Active |  |  |  |  | 
10 | CC(C)NCC(O)c1ccccc1Cl (configuration not stated) [CLORPRENALINE] |  | Not Active | Not Active | Not Active | Not Active | Not Active | Not Active | Not Active | Not Active | Not Active | 1.99 | 1.37 |  |  | 
11 | CN1C[C@@H]2C[C@H]1CN2c1cc2c(cc1F)c(=O)c(C(=O)O)cn2C1CC1 [DANOFLOXACIN] | Not Active | Not Active | Not Active | Not Active | Not Active | Not Active | Not Active | Not Active | Not Active | Not Active |  |  |  |  | 
12 | COc1cccc2c1C(=O)c1c(O)c3c(c(O)c1C2=O)C[C@@](O)(C(C)=O)C[C@@H]3O[C@H]1C[C@H](N)[C@H](O)[C@H](C)O1 [DAUNORUBICIN] | Not Active | Not Active | Not Active | Not Active | Not Active | Not Active | Not Active | Not Active | Not Active | Not Active |  |  |  |  | 
13 | O=C(O)c1cc(-c2ccc(F)cc2F)ccc1O [DIFLUNISAL] | Not Active | Not Active | Not Active | Not Active | Not Active | Not Active |  | Not Active | Not Active | Not Active |  |  | Not Active |  | 
14 | C[S+](C)[O-] [DIMETHYL SULFOXIDE] | Not Active | Not Active | Not Active | Not Active | Not Active | Not Active | Not Active | Not Active | Not Active | Not Active |  |  |  |  | 
15 | CC1=NN(c2ccccc2)C(=O)C1 [EDARAVONE] | Not Active | Not Active | Not Active | Not Active | Not Active | Not Active | Not Active | Not Active | Not Active | Not Active |  |  |  |  | 
16 | CC(C)C[C@H]1C(=O)N2CCC[C@H]2[C@]2(O)O[C@](NC(=O)[C@@H]3C=C4c5cccc6[nH]cc(c56)C[C@H]4N(C)C3)(C(C)C)C(=O)N12 [ERGOCRYPTINE] | Not Active |  | Not Active | Not Active | Not Active | Not Active | Not Active | Not Active | Not Active | Not Active |  |  |  | 2.5 | 1.87
17 | C[C@]12CC[C@@H]3c4ccc(O)cc4CC[C@H]3[C@@H]1C[C@@H](O)[C@@H]2O [ESTRIOL] | Not Active | Not Active | Not Active | Not Active | Not Active | Not Active | Not Active | Not Active | Not Active | Not Active |  |  |  |  | 
18 | C#C[C@]1(O)CC[C@H]2[C@@H]3CCC4=CC(=O)CC[C@]4(C)[C@H]3CC[C@@]21C [ETHISTERONE] | Not Active | Not Active | Not Active | Not Active | Not Active | Not Active | Not Active | Not Active | Not Active | Not Active |  |  |  |  | 
19 | CC(O)(P(=O)(O)O)P(=O)(O)O [ETIDRONIC ACID] | Not Active | Not Active | Not Active | Not Active | Not Active | Not Active | Not Active | Not Active | Not Active | Not Active |  |  |  |  | 
20 | CN1CCN(c2c(F)cc3c(=O)c(C(=O)O)cn(CCF)c3c2F)CC1 [FLEROXACIN] | Not Active | Not Active | Not Active | Not Active | Not Active | Not Active | Not Active | Not Active | Not Active | Not Active |  |  |  |  | 
21 | O=c1[nH]c(=O)n([C@H]2C[C@H](O)[C@@H](CO)O2)cc1F [FLOXURIDINE] | Not Active | Not Active | Not Active | Not Active | Not Active | Not Active | Not Active | Not Active | Not Active | Not Active |  |  |  |  | 
22 | COC(=O)Nc1nc2cc(C(=O)c3ccc(F)cc3)ccc2[nH]1 [FLUBENDAZOLE] | Not Active | Not Active | Not Active | Not Active | Not Active | Not Active | Not Active | Not Active | Not Active | Not Active |  |  |  |  | 

Reference: ChEMBL document CHEMBL1909046, “DrugMatrix in vitro pharmacology data”
